Measurements from publication PMC8746441, “Design, Synthesis and Preclinical Assessment of ^99mTc-iFAP for In Vivo Fibroblast Activation Protein (FAP) Imaging” (Molecules, 2022).

Tests used:
[1] = tested on: healthy laboratory Balb-C mice; experiment: Adverse effects of the cold ligand; assay type: in vivo; conditions: dose of 40 mg/kg
[2] = tested on: nude mice with induced Hep-G2 lesions; experiment: Micro-SPECT/CT imaging and tumor SUV; conditions: for tumor SUVmax, the mouse shown in Figure 7: one nude mouse; for tumor SUVmax, the mouse shown in Figure 7 / tumor SUVmax: right thigh; for tumor SUVmax: Hep-G2 tumor
Description: Hep-G2 tumors were induced in mice (n = 15) by subcutaneous injection (right thigh; positive control) of 1 × 10^6 cells suspended in 0.2 mL of phosphate-buffered saline. Killed Klebsiella pneumoniae bacteria (heated for 2 h at 1000 °C and verified for absence of growth after culturing), aseptically suspended in 0.2 mL of PBS (1 × 10^6 bacteria), were subcutaneously administered into the left thigh of mice in order to induce inflammation (negative control). After the tumor was visible, ^99mTc-iFAP (50 µL, 18 MBq, 7 nmol of iFAP) was administered intravenously into the tail of each mouse. Three mice were selected for micro-SPECT/CT imaging, whereas the rest were sacrificed to be used in the biodistribution study. […] After the mice were sacrificed, the blood and main organs were removed, weighted and their radioactivity measured using a Na(Tl) detector, in order to calculate the percentage of the injected dose per gram of tissue (%ID/g) by using an initial standard volume (100% of the initial injected activity). Biokinetic models of the four main target tissues/organs (blood, tumor, liver and kidneys) were obtained by fitting ^99mTc-iFAP time-activity curves to functions with two or three exponential terms Equation (2):(2) A(t)=Ae^−at+Be^−bt+Ce^−ct

[3] = tested on: tumor microenvironment of different types of cancer; experiment: Preliminary clinical SPECT/CT imaging studies; assay type: in vivo; conditions: preliminary clinical studies in progress, breast, lung, colorectal, gliomas, cervical cancer
[4] = Radiochemical stability of the radiopharmaceutical after labeling (radio-HPLC/ITLC-SG); assay type: physicochemical; conditions: 24 h after labeling
Description: For radiolabeling, the lyophilized formulation was reconstituted with 1 mL of a 0.2 M phosphate buffer and 1 mL of ^99mTcO4Na (740–1110MBq). The reaction was incubated in a block heater for 15 min at 92 °C. The radiochemical purity was 98% as determined by radio-HPLC (Discovery C18; 5 μm particle size; L × I.D. 25 cm × 4.6 mm; linear gradient: 0.1% TFA/water (A) and 0.1% TFA/acetonitrile (B) flow rate of 1 mL/min. A-100% for 3 min, changed to A-50% over 10 min and maintained for 10 min, changed A-30% over 3 min and returned to A-100% over 4 min).
ITLC-SG (instant thin layer chromatography-silica gel) was also carried out for the assessment of ^99mTc-iFAP radiochemical purity. Three mobile phases were used, the 2-butanone phase was employed for the identification of free ^99mTcO4^− (Rf = 1), where ^99mTc-iFAP, ^99mTc-EDDA/tricine and ^99mTc-colloid remained in the origin (Rf = 0); 0.1 M sodium citrate (pH 5) identified free ^99mTcO4 (Rf = 1) and ^99mTc-EDDA/tricine coligands (Rf = 1), where ^99mTc-iFAP and ^99mTc-colloid remained in the origin (Rf = 0); finally, the third phase was used for the determination of ^99mTc-colloid (Rf = 0) and consisted of ammonium acetate-methanol (1:1 v/v) ( ^99mTcO4^−, ^99mTc-iFAP and ^99mTc-EDDA run with the solvent front; Rf = 1).

[5] = tested on: mice with induced Hep-G2 tumors; experiment: Biodistribution and biokinetic models in tumor-bearing mice; assay type: in vivo; conditions: for Biodistribution, Blood / Biodistribution, Bone / Biodistribution, Heart / Biodistribution, Tumor / Biodistribution, Intestine / Biodistribution, Kidneys / Biodistribution, Liver / Biodistribution, Lung / Biodistribution, Muscle (left thigh) / Biodistribution, Pancreas / Biodistribution, Spleen / Biodistribution, Stomach: i.v.
Description: The biodistribution studies in Balb-c male mice were carried out in agreement with Official Mexican Norm 062-ZOO-1999. Hep-G2 tumors were induced in mice (n = 15) by subcutaneous injection (right thigh; positive control) of 1 × 10^6 cells suspended in 0.2 mL of phosphate-buffered saline. Killed Klebsiella pneumoniae bacteria (heated for 2 h at […] and verified for absence of growth after culturing), aseptically suspended in 0.2 mL of PBS (1 × 10^6 bacteria), were subcutaneously administered into the left thigh of mice in order to induce inflammation (negative control). After the tumor was visible, ^99mTc-iFAP (50 µL, 18 MBq, 7 nmol of iFAP) was administered intravenously into the tail of each mouse. Three mice were selected for micro-SPECT/CT imaging, whereas the rest were sacrificed to be used in the biodistribution study. The times of evaluation were 15 min, 30 min, 2 h and 24 h. After the mice were sacrificed, the blood and main organs were removed, weighted and their radioactivity measured using a […] detector, in order to calculate the percentage of the injected dose per gram of tissue (%ID/g) by using an initial standard volume (100% of the initial injected activity). Biokinetic models of the four main target tissues/organs (blood, tumor, liver and kidneys) were obtained by fitting ^99mTc-iFAP time-activity curves to functions with two or three exponential terms Equation (2):(2) A(t)=Ae^−at+Be^−bt+Ce^−ct

[6] = Human serum stability and protein binding (size-exclusion radio-HPLC); assay type: in vitro ADME
Description: The ^99mTc-iFAP (37 MBq, 100 µL, 14 nmol) was incubated at 37 °C with 500 µL of human serum (IST-909c certified human serum sample, Sigma-Aldrich) and diluted in 0.5 mL of a 0.9% NaCl solution. Twenty microliters of the mixture were sampled at 30 min, 3 and 24 h for size-exclusion radio-HPLC analysis using a ProteinPak 300SW Waters column and 0.01M PBS as the mobile phase (1 mL/min). The percentage of recovery (quantification of the radioactivity recovered from the HPLC column) was determined by injecting 20 µL of the ^99mTc-iFAP sample into the HPLC system and 20 µL into a 50 mL volumetric flask, which was filled with 0.01 M PBS (flask 1). The column was eluted with 0.01 M PBS for 50 min (1 mL/min) and the effluent was collected in a 50 mL volumetric flask (flask 2). Aliquots of 1 mL from both flask 1 and flask 2 were measured on an HPGe detector (ORTEC). The percentage of recovery was calculated by dividing the counts in flask 2 by the counts in flask 1 then multiplied by 100.

[7] = tested on: N30 (primary human stromal endometrial cells, FAP positive); experiment: Cellular uptake and internalization; assay type: cell-based; conditions: 1 h, 37 °C
Description: The ^99mTc-iFAP uptake and internalization by N30 (FAP +) and fibroblast (FAP −) cells were determined by using 4 × 10^5 cells/500 µL of PBS in test tubes (n = 6). Both cells lines were incubated for 1 h at 37 °C with 10 µL of ^99mTc-iFAP (37 kBq, 0.4 nmol iFAP). After incubation, three washes with 500 µL of PBS were performed by centrifugation (700 g/5 min). By using a crystal scintillation (NaI(Tl)) well-type detector (MNL Inc., Littleton, CO, USA), the radioactivity in the cell pellet was evaluated. A standard volume with the initial activity was used to represent 100%, and the cell uptake activity was assessed with regard to this value. For the evaluation of internalization, the cell pellets were treated at 37 °C for 5 min with 500 µL of an acid glycine solution (0.1 M glycine, pH adjusted to 2.8 with HCl), and centrifuged (700 g/5 min). The cell pellet was incubated with 1 M NaOH for 5 min and centrifuged (700 g/5 min). The radioactivity of the supernatant was calculated as the percentage of internalization with regard to the initial activity of the standard volume as mentioned above.

C[C@@H](NC(=O)c1ccc(NN)nc1)C(=O)N1CCC[C@H]1B(O)O [iFAP, ((R)-1-((6-hydrazinylnicotinoyl)-D-alanyl)pyrrolidin-2-yl) boronic acid]
adverse effects [1]: did not show adverse effects

^99mTc-((R)-1-((6-hydrazinylnicotinoyl)-D-alanyl) pyrrolidin-2-yl) boronic acid [^99mTc-iFAP]
tumor SUVmax, the mouse shown in Figure 7 ([2]; 30 min): 5.6 | tumor SUVmax ([2]; 30 min after administration): 5.0 ± 1.2 | tumor SUVmax, the mouse shown in Figure 7 ([2]; 24 h): 2.4 | tumor SUVmax ([2]; 24 h after administration): 2.7 ± 0.6 | radiotracer uptake in left thigh with inflammation induced by killed bacteria (negative control) ([2]; micro-SPECT/CT, left thigh): no radiotracer uptake was observed | sensitivity to detect the tumor microenvironment [3]: high sensitivity | radiochemical purity after 24 h of labeling [4]: greater than 97% | Biodistribution, Blood ([5]; 15 min): 2.07 ± 0.63 %ID/g | Biodistribution, Blood ([5]; 30 min): 1.02 ± 0.32 %ID/g | Biodistribution, Blood ([5]; 2 h): 0.33 ± 0.05 %ID/g | Biodistribution, Blood ([5]; 24 h): 0.01 ± 0.01 %ID/g | Biodistribution, Bone ([5]; 15 min): 0.20 ± 0.09 %ID/g | Biodistribution, Bone ([5]; 30 min): 0.14 ± 0.06 %ID/g | Biodistribution, Bone ([5]; 2 h): 0.13 ± 0.02 %ID/g | Biodistribution, Heart ([5]; 15 min): 1.75 ± 0.08 %ID/g | Biodistribution, Heart ([5]; 30 min): 0.88 ± 0.23 %ID/g | Biodistribution, Heart ([5]; 2 h): 0.19 ± 0.03 %ID/g | Biodistribution, Tumor ([5]; Hep-G2 tumor, 15 min): 9.87 ± 1.94 %ID/g | Biodistribution, Tumor ([5]; Hep-G2 tumor, 30 min): 7.05 ± 1.13 %ID/g | Biodistribution, Tumor ([5]; Hep-G2 tumor, 2 h): 5.18 ± 0.82 %ID/g | Biodistribution, Tumor ([5]; Hep-G2 tumor, 24 h): 2.37 ± 0.26 %ID/g | tumor fast elimination constant (λeff) ([5]; Hep-G2 tumor, biokinetic model): 0.41 h⁻¹ | tumor slow elimination constant (λeff) ([5]; Hep-G2 tumor, biokinetic model): 0.12 h⁻¹ | Biodistribution, Intestine ([5]; 15 min): 1.42 ± 0.74 %ID/g | Biodistribution, Intestine ([5]; 30 min): 0.93 ± 0.14 %ID/g | Biodistribution, Intestine ([5]; 2 h): 0.22 ± 0.10 %ID/g | Biodistribution, Kidneys ([5]; 15 min): 13.85 ± 2.27 %ID/g | Biodistribution, Kidneys ([5]; 30 min): 11.18 ± 1.54 %ID/g | Biodistribution, Kidneys ([5]; 2 h): 7.46 ± 1.02 %ID/g | Biodistribution, Kidneys ([5]; 24 h): 1.89 ± 0.53 %ID/g | Biodistribution, Liver ([5]; 15 min): 2.78 ± 0.42 %ID/g | Biodistribution, Liver ([5]; 30 min): 2.14 ± 0.51 %ID/g | Biodistribution, Liver ([5]; 2 h): 1.05 ± 0.29 %ID/g | Biodistribution, Liver ([5]; 24 h): 0.05 ± 0.03 %ID/g | Biodistribution, Lung ([5]; 15 min): 1.11 ± 0.51 %ID/g | Biodistribution, Lung ([5]; 30 min): 0.65 ± 0.19 %ID/g | Biodistribution, Lung ([5]; 2 h): 0.02 ± 0.01 %ID/g | Biodistribution, Muscle (left thigh) ([5]; 15 min): 0.39 ± 0.15 %ID/g | Biodistribution, Muscle (left thigh) ([5]; 30 min): 0.31 ± 0.11 %ID/g | Biodistribution, Muscle (left thigh) ([5]; 2 h): 0.18 ± 0.06 %ID/g | Biodistribution, Pancreas ([5]; 15 min): 0.64 ± 0.10 %ID/g | Biodistribution, Pancreas ([5]; 30 min): 0.31 ± 0.12 %ID/g | Biodistribution, Pancreas ([5]; 2 h): 0.12 ± 0.04 %ID/g | Biodistribution, Spleen ([5]; 15 min): 1.07 ± 0.17 %ID/g | Biodistribution, Spleen ([5]; 30 min): 0.82 ± 0.04 %ID/g | Biodistribution, Spleen ([5]; 2 h): 0.15 ± 0.05 %ID/g | Biodistribution, Stomach ([5]; 15 min): 0.71 ± 0.08 %ID/g | Biodistribution, Stomach ([5]; 30 min): 0.39 ± 0.12 %ID/g | Biodistribution, Stomach ([5]; 2 h): 0.25 ± 0.03 %ID/g | fraction of radiotracer eliminated from blood, fast phase ([5]; blood, biokinetic model, fast): 88.6% | fraction of radiotracer eliminated from blood, slow phase ([5]; blood, biokinetic model, slow): 11.4% | blood half-life (slow) ([5]; blood, t1/2 = ln2/0.27): 154 min | blood half-life (fast) ([5]; blood, t1/2 = ln2/2.93): 14.4 min | kidney half-life, second phase ([5]; kidneys, t1/2 = ln2/1.54): 27 min | kidney half-life (fast) ([5]; kidneys, t1/2 = ln2/2.71): 15.6 min | fraction of activity eliminated from kidneys, fast phase ([5]; kidneys, triexponential model, fast): 49.4% | fraction of activity eliminated from kidneys, second phase ([5]; kidneys, triexponential model, second phase): 6.3% | fraction of activity eliminated from kidneys, slow phase ([5]; kidneys, triexponential model, slow): 44.3% | stability in fresh human serum ([6]; 30 min, 3 h and 24 h, 37 °C): remained stable | 99mTc-colloid as activity retained in the column ([6]; from percentage of recovered activity, size-exclusion HPLC): 0.2% | transchelation of 99mTc to cysteine ([6]; human serum, 37 °C): does not occur | serum protein binding ([6]; human serum, 37 °C, 30 min): 0.3 ± 0.1% | serum protein binding ([6]; human serum, 37 °C, 3 h): 0.9 ± 0.2% | radiochemical stability in human serum ([6]; human serum, 37 °C, 24 h): > 95% | serum protein binding ([6]; human serum, 37 °C, 24 h): 2.1 ± 0.3% | internalization rate in N30 cells [7]: rather low | cellular uptake in N30 compared to fibroblasts ([7]; human fibroblasts FAP negative control, p < 0.05, n = 6): increased
